Test results as given in patent publication US20220119772A1, “COMPOSITIONS AND METHODS FOR TREATMENT OF A MALABSORPTIVE DISORDER” (CHILDREN'S HOSPITAL MEDICAL CENTER, priority 2019, published 2022).
Ends that are not written are not given here.

What was measured:
mouse jejunum = assay: Ussing chamber electrophysiology, peptides/chemicals added ex vivo, mouse jejunum; format: cell-based; conditions: for initial Isc response to luminal glucose: then 25 mM D-glucose
Protocol: (§1) Electrophysiological experiments were conducted as described^28 with minor modifications. Mouse jejunum and transplanted HIOs were dissected and immediately placed in ice-cold Krebs-Ringer solution. Tissues were opened to create a flat epithelial surface. Because seromuscular stripping is associated with release of cyclooxygenases and prostaglandins^28, and prostaglandins can stimulate L-cells to release GLP1, GLP2 and PYY^36, Applicant performed the Ussing chamber experiments in intestinal tissue with an intact muscular layer. Tissues were mounted into sliders (0.031 cm^2 area slider, P2307, Physiological Instruments) and placed in an Ussing chamber with reservoirs containing 5 mL buffer (115 mM NaCl, 1.2 mM CaCl2, 1.2 mM MgCl2, 25 mM NaHCO3, 2.4 mM K2HPO4 and 0.4 mM KH2PO4). The mucosal and serosal tissue surfaces were bathed in the same solution, with the exception of 10 mM glucose in the serosal buffer and 10 mM mannitol in the luminal buffer. Mucosal and serosal reservoir solutions were gassed with 95% O2 and 5% CO2 to pH 7.4 and maintained at 37° C. by a circulating water bath behind the reservoir chambers. Electrophysiology parameters were recorded as previously described^37. Tissue was allowed to equilibrate to a basal steady-state for a minimum of 30 minutes before the addition of chemicals or peptides. 10 nM tetrodotoxin (Tocris) was added to the serosal buffer bathing mouse intestine to inhibit voltage-gated neuronal firing and allowed to incubate for a minimum of 10 minutes before basal Isc recording. D-glucose and Gly-Sar were added to the luminal side of the chamber once the VIP-induced Isc had stabilized at a maximum value.

[1] = tested on: human small intestinal tissue (transplanted HIOs); assay: Ussing chamber electrophysiology, peptides/chemicals added ex vivo, transplanted HIO tissue; format: cell-based; conditions: for initial Isc response to luminal glucose: then 25 mM D-glucose
Protocol: (§2) 28-35 days after spheroid generation, HIOs were removed from Matrigel and transplanted under the kidney capsule of immune deficient NOD.Cg-Prkdc^scidI12rg^tmIWjl/SzJ (NSG) mice as previously described^16. NSG mice were maintained on Bactrim chow for a minimum of 2 weeks prior to transplantation and thereafter for the duration of the experiment (8-14 weeks).
as §1

HIO-derived enteroids [2] = assay: Enteroid swelling assay (VIP-induced, CFTR-mediated ion and water efflux); format: cell-based, human; conditions: for VIP-induced enteroid swelling: 10 nM VIP, 6 h, 10 nM PYY or 20 μM CFTR-172 added 24 h before imaging
Protocol: Enteroids were plated in 10 μL Matrigel on an 8-chamber glass bottom slide (Ibidi) and maintained as described above. 3-5 days post-plating, the slide was mounted on an inverted confocal microscope (Nikon) fitted with an incubation chamber set to 37° C. and 5% CO2. Media was changed to include 10 nM VIP (Tocris). In some experiments, the media was changed 24 hours prior to imaging to include 20 μM CFTR (inh)-172 (Millipore Sigma) or 10 nM PYY (Phoenix Pharmaceuticals). Images were acquired every 5 minutes at 4× magnification. After 6 hours, some HIOEs swelled to the point of bursting; therefore, Applicant used images acquired at time 0 and at 6 hours for quantification. The area of 10 representative enteroids per well was quantified using NIS Elements software at both time points. The outline of individual enteroids was traced manually and the area calculated by NIS Elements. Fold change at 6 hours over baseline was reported. Data include a minimum of three independent experiments per condition.

SLC9A3 (NHE3) expression = assay: qPCR of SLC9A3 (NHE3) expression in enteroids; format: cell-based, human
Protocol: RNA was extracted using Nucleospin RNA extraction kit (Macharey-Nagel) and reverse transcribed into cDNA using Superscript VILO (Invitrogen) according to manufacturer's instruction. qPCR primers were designed using NCBI PrimerBlast. Primer sequences are listed in the table below. qPCR was performed using Quantitect SYBR® Green PCR kit (QIAGEN) and a QuantStudio 3 Flex Real-Time PCR System (Applied Biosystems). Relative expression was determined using the […] method and normalizing to PPIA (cyclophilin A). Samples from at least three independent passages were used for quantification.
(§3) Enteroids were differentiated for 5-7 days in the presence of vehicle (water), 10 nM VIP (Tocris) or 10 nM PYY (Phoenix Pharmaceuticals) and 10 nM VIP. On the final day, enteroids were removed from Matrigel and enzymatically dissociated into single-cell suspension using 0.25% Trypsin-EDTA. Cell suspensions were counted and equal cell numbers of dissociated HIOEs were incubated in pHrodo Green AM Intracellular pH indicator (ThermoFisher Scientific) according to manufacturer's directions for 30 minutes at 37 C., washed with 1X PBS, and analyzed by flow cytometry.

[3] = tested on: VillinCre;Neurog3flox/flox (EEC-deficient) mice; assay: PYY rescue of EEC-deficient mice (daily i.p. injection), with ex vivo analysis of jejunum; format: in vivo, mouse
Protocol: as §1
(§4) After mechanical and enzymatic dissociation, tissues were filtered through a 40 μm cell strainer to obtain a single-cell suspension. In all experiments, samples were labeled with either CDH1-mRuby2 or Anti-EpCam-APC (BD Biosciences) to distinguish epithelial cells and incubated with SYTOX Blue dead cell stain (Life Technologies) or 7-AAD (BD Pharmingen). Forward scatter and side scatter were used to discriminate doublets and cellular debris. A minimum of 50,000 events per sample was recorded using an LSR Fortessa flow cytometer (BD Biosciences) and data was analyzed using FACSDiva software (BD Biosciences).
VillinCre;Neurog3^flox/flox mice^4 and their littermates were weighed, genotyped and visually examined for liquid feces daily beginning at postnatal day 10. Applicant established a diarrhea score, with 3 representing wet, yellow feces that smeared the perianal fur, and 0 representing normal, dry, brown, well-defined pellets. Mutant mice which suffered from diarrhea score 3 were included in the rescue experiment. 10 μg PYY (Phoenix Pharmaceuticals) was diluted in water and added to 20 μl DPP4 inhibitor (Millipore) to a final volume of 100 μl per mouse. Mice were injected intraperitoneally with this cocktail within 2 hours of the onset of the dark cycle (7 pm) daily until analysis at postnatal day 28-35. Mice were given access to solid chow on the floor of the cage beginning at postnatal day 10 and weaned at postnatal day 21.

HIO-derived enteroids [4] = assay: Intracellular pH assay (pHrodo, flow cytometry) in enteroids; format: cell-based, human
Protocol: as §3, §4

[5] = tested on: EEC-deficient HIOs transplanted in NSG mice; assay: PYY treatment of NSG mice hosting EEC-deficient HIOs, Ussing chamber analysis of HIO tissue; format: in vivo, human
Protocol: as §2
Electrophysiological experiments were conducted as described^28 with minor modifications. Mouse jejunum and transplanted HIOs were dissected and immediately placed in ice-cold Krebs-Ringer solution. Tissues were opened to create a flat epithelial surface. Because seromuscular stripping is associated with release of cyclooxygenases and prostaglandins^28, and prostaglandins can stimulate L-cells to release GLP1, GLP2 and PYY^36, Applicant performed the Ussing chamber experiments in intestinal tissue with an intact muscular layer. […] Electrophysiology parameters were recorded as previously described^37. […]
NSG mice hosting HIOs were treated with 25 μg PYY (Phoenix Pharmaceuticals) diluted in water to 100 μL by intraperitoneal injection. Mice were treated daily for a minimum of 10 days after HIOs had been maturing for 8 weeks, then dissected and analyzed.

## NC(=O)NCc1ccc(CNC(=O)[C@@H](CCCN=C(N)N)NC(=O)C(c2ccccc2)c2ccccc2)cc1 [BIB03304, N-[(1R)-1-[[[[4-[[(Amirtocarbortyl)amino]methyl]phenyl]methyl]amino]carbonyl]-4-[(aminoiminomethyl)amino]butyl]-α-phenyl-benzeneacetamide ditrifluoroacetate]
Mouse jejunum; wild-type mouse tissue treated with VIP, NPY1R antagonist BIB03304
  initial Isc response to luminal glucose: caused an abnormal initial response to glucose that mimicked EEC-deficient tissues
Mouse jejunum; wild-type mouse tissue, 10 nM VIP, PYY receptor inhibited with BIB03304
  response (ΔIsc) to VIP: elevated response to VIP compared to untreated wild-type
Mouse jejunum; wild-type mouse tissue, 300 nM BIB03304 added
  basal Isc: reproducibly increased the basal Isc
Mouse jejunum; wild-type mouse tissue, 10 minutes pre-treatment with 300 nM BIB03304
  Isc response to luminal dipeptide Gly-Sar: did not alter the Isc response to Gly-Sar
[1]; wild-type HIO tissue treated with VIP, NPY1R antagonist BIB03304
  initial Isc response to luminal glucose: caused an abnormal initial response to glucose that mimicked EEC-deficient tissues
[1]; wild-type human tissue, 10 nM VIP, PYY receptor inhibited with BIB03304
  response (ΔIsc) to VIP: elevated response to VIP compared to untreated wild-type
[1]; wild-type human tissue, 300 nM BIB03304 added
  basal Isc: reproducibly increased the basal Isc
[1]; wild-type human tissue, 10 minutes pre-treatment with 300 nM BIB03304
  Isc response to luminal dipeptide Gly-Sar: did not alter the Isc response to Gly-Sar

## O=C(O)c1ccc(/C=C2\SC(=S)N(c3cccc(C(F)(F)F)c3)C2=O)cc1 [CFTR-172]
Mouse jejunum; wild type and mutant jejunum pre-treated with 20 μM CFTR-172
  electrogenic response to VIP: blocked
[1]; wild-type and EEC-deficient human tissue, 20 μM CFTR-172
  electrogenic response to VIP: blocked
HIO-derived enteroids [2]; EEC-deficient enteroids
  VIP-induced enteroid swelling: blocked
HIO-derived enteroids [2]; wild type enteroids
  VIP-induced enteroid swelling: blocked

## PYY: Peptide YY, PYY(1-36) from Phoenix Pharmaceuticals; EEC-derived gut peptide acting on NPY1R; co-injected with DPP4 inhibitor in mice
SLC9A3 (NHE3) expression; EEC-deficient enteroids, PYY concurrently with VIP, 5-7 days
  SLC9A3 expression: restored SLC9A3 expression to not significantly different from untreated
[3]; 10 μg PYY(1-36) i.p. once daily from P10, co-injected with DPP4 inhibitor
  survival of EEC-deficient (mutant) mice: up to 88%
[3]; EEC-deficient mice, long-term PYY treatment, compared to untreated mutant
  Isc response to luminal Gly-Sar: improved Isc response to luminal Gly-Sar
[3]; EEC-deficient mouse intestine after in vivo PYY treatment
  response to luminal glucose: restores a normal glucose response
[3]; EEC-deficient vs EEC-rich regions of mosaic jejunum after PYY treatment
  MFI of pHrodo intensity (intracellular pH, proton transport): normalized
[3]; jejunum of mutant mice treated with PYY in vivo
  electrogenic response to VIP: restored to wild type levels
[3]; mutant jejunum in Ussing chamber after in vivo injections of PYY
  basal (resting) Isc of jejunum: significantly decreased
[3]; within 48 hours of PYY treatment, score 3 = watery diarrhea, 0 = well-defined pellets, 10 μg PYY i.p. daily with DPP4 inhibitor
  diarrhea score (average): 1
Mouse jejunum; EEC-deficient (mutant) mouse tissue, 10 nM PYY added
  basal Isc: lowered the basal Isc
Mouse jejunum; EEC-deficient mouse tissue treated with VIP, pre-treatment with 10 nM PYY
  initial Isc response to luminal glucose: returned to wild type levels
Mouse jejunum; EEC-deficient mouse tissue, 10 minutes pre-treatment with 10 nM PYY, VIP present
  Isc response to luminal dipeptide Gly-Sar: did not alter the Isc response to Gly-Sar
Mouse jejunum; EEC-deficient mutant mice, 10 nM VIP, exogenous PYY added
  magnitude of response (ΔIsc) to VIP: reduced the magnitude of response (ΔIsc) to VIP
HIO-derived enteroids [4]; EEC-deficient enteroids, 10 nM VIP with concurrent 10 nM PYY for 5-7 days
  intracellular pH: normalized the pH in EEC-deficient enteroids
[1]; EEC-deficient (mutant) human tissue, 10 nM PYY added
  basal Isc: lowered the basal Isc
[1]; EEC-deficient HIO tissue treated with VIP, pre-treatment with 10 nM PYY
  initial Isc response to luminal glucose: returned to wild type levels
[1]; EEC-deficient mutant HIOs, 10 nM VIP, exogenous PYY added
  magnitude of response (ΔIsc) to VIP: reduced the magnitude of response (ΔIsc) to VIP
HIO-derived enteroids [2]; EEC-deficient enteroids
  VIP-induced enteroid swelling: significant inhibition of VIP-induced swelling
HIO-derived enteroids [2]; wild type enteroids
  VIP-induced enteroid swelling: significant inhibition of VIP-induced swelling
[5]; EEC-deficient HIOs, host animals injected with 25 μg PYY i.p. daily for 10 days
  response to luminal glucose: restores a normal glucose response
[5]; EEC-deficient transplanted HIOs, host animals treated long-term with PYY, compared to untreated mutant
  Isc response to luminal Gly-Sar: improved Isc response to luminal Gly-Sar

## VIP: vasoactive intestinal peptide (Tocris), ENS-derived peptide signalling via VIPR1 to raise cAMP (HSDAVFTDNYTRLRKQMAVKKYLNSILN-NH2; ends and bridges not checked; UniProt P01282 125-152, looked up)
SLC9A3 (NHE3) expression; EEC-deficient enteroids, 5-7 days of exposure to VIP
  SLC9A3 expression: reduced
SLC9A3 (NHE3) expression; wild type enteroids, 5-7 days of exposure to VIP
  SLC9A3 expression: reduced
HIO-derived enteroids [4]; EEC-deficient enteroids differentiated with 10 nM VIP for 5-7 days
  intracellular pH: developed an H^+ imbalance with an acidic cytoplasm
HIO-derived enteroids [2]; 10 nM VIP added to enteroids
  ion and water transport as measured by organoid swelling: induced ion and water transport
